# Experimental data published in patent US8993624B2, “Method of preventing and treating inflammatory diseases and disorders with abscisic acid” (Virginia Tech Intellectual Properties, Inc., priority 2010, dated 2015).
# Legend:
# [1] = molecular target: T1, ligand-binding domain of PPAR γ (Homo sapiens, UniProt P37231); test: PPAR γ ligand-binding assay (Polarscreen PPAR Competitor Assay, Green); conditions: 0.001-10 μM, 4 hours
# T1 construct: purchased Invitrogen
# T1 sequence (P37231 238-503 limits assumed): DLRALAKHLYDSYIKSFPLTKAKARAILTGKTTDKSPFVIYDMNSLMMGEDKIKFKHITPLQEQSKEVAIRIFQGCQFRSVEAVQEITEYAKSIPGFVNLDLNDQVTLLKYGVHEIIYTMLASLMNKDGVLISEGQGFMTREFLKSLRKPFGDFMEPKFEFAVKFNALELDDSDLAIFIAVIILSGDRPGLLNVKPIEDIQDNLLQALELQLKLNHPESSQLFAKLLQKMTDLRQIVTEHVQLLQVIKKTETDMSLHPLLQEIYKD
# Procedure: After 4 hours the ability of each compound to displace the fluorescent ligand, and therefore reduce the polarization values, was assessed using a fluorescent plate reader with 485 nm excitation and 535 nm emission. Results are a compilation of 4 independent experiments.
# [2] = system: PPAR γ; test: LANCL2 siRNA and PPAR γ co-transfections in RAW macrophages; format: cell-based
# Procedure: LANCL2 siRNA and PPAR γ co-transfections—RAW macrophages were transfected with the PPAR γ plasmid as described in the preceding section with or without LANCL2 siRNA. Specifically, RAW macrophages were then co-transfected with 0.2-μg plasmid DNA and 0.25 μL LANCL2 siRNA (20 μM) per well using the Lipofectamine 2000 transfection reagent (Invitrogen). […] After incubation, RAW macrophages were harvested in reporter lysis reagent and luciferase activity was determined as described above. LANCL2 mRNA was measured by RT-PCR in control wells to assess the efficiency of knockdown.
# [3] = system: macrophages; test: Intracellular cAMP in macrophages; format: cell-based, mouse; conditions: 10 minutes
# Procedure: Intracellular cAMP in CD3/CD28-stimulated splenocytes and LPS-stimulated macrophages—Spleens were excised from C57BL6/J mice under sterile conditions. Cells were released by disrupting the tissue between frosted glass slides and red blood cells were lysed with erythrocyte lysis buffer. Splenocytes were enumerated with a Coulter Counter (Beckman Coulter, Fullerton, Calif.) and seeded in cRPMI at 1×10^6/ml onto 24-well plates pre-coated with anti-mouse CD3 (5 μg/mL; BD Pharmingen) and anti-mouse CD28 (1 μg/mL; BD Pharmingen). […] For intracellular assessment of cAMP, cells were harvested into 0.1 M HCl and the lysates were collected. The cAMP concentration of the lysates was determined using an EIA kit (Assay Designs, Ann Arbor, Mich.).
# [4] = system: LPS-stimulated bone marrow-derived macrophages; test: Inflammatory mediators in LPS-stimulated bone marrow-derived macrophages; format: cell-based, mouse; conditions: ABA 2.5 μM, 12 hours
# Procedure: Bone Marrow-derived Macrophage (BMM) Cultures—Bone marrow cells from PPAR γ flfl; MMTV-Cre− (flfl-Cre−) and flfl-Cre+ mice were cultured in DMEM with M-CSF (50 ng/ml) for 7 days. Fresh media with M-CSF was added on day 3. […] Following differentiation macrophages were directly stimulated with LPS (100 ng/ml) as previously described for 12 hours (21). ABA was added to macrophage cultures at a concentration of 2.5 μM. The effect of ABA on LPS/toll-like receptor-4 (TLR4)-mediated prostaglandin E2 (PGE2), leukotriene B4 (LTB4) and monocyte chemoattractant protein-1 (MCP-1) production by macrophages was examined in cell supernatants 12 hours following the LPS challenge by using a commercial PGE2 EIA kit (Cayman Chemicals), a LTB4 competitive binding assay (R&D Systems) and a MCP-1 ELISA (R&D Systems), respectively, per the manufacturer's instructions.
# [5] = system: NFATc1; test: NFATc1 activity in spleens of LPS-challenged mice; format: in vivo, mouse; conditions: spleen
# Procedure: NF-κB and NFAT activities—Spleens were diced into smaller pieces in lysis buffer containing dithiothreitol and a protease inhibitor cocktail and then further disrupted using a dounce ground glass homogenizer at 4° C. Nuclear extraction for tissue homogenate and BMM was performed using the Nuclear Extract kit (Active Motif, Carlsbad, Calif.) per the manufacturer's instructions. The extracts were used to perform a Bradford-based assay for quantifying the protein concentrations and stored at −80° C. NF-κB and NFATc1 activities were measured as previously described (13) by using the Trans-AM™ NF-κB p65 and the Trans-AM™ NFATc1 ELISA-based assays (Active Motif), respectively per the manufacturer's instructions.
# [6] = system: RXR; test: RXR reporter activity (data not shown); format: cell-based
# [7] = system: RAR; test: RAR reporter activity (data not shown); format: cell-based
# [8] = system: lymphocytes; test: IL-2 production and lymphocyte proliferation (unpublished data); format: cell-based
# [9] = system: Influenza A/Udorn (H3N2); test: Dietary (prophylactic) ABA, influenza virus challenge in mice; format: in vivo, mouse; conditions: for survival: ABA diet
# [10] = system: A/California/09 (H1N1); test: Post-exposure ABA by gavage, A/California/09 (H1N1) challenge in mice; format: in vivo, mouse
# [11] = system: inactivated influenza virus PR8 antigens; test: Lymphocyte proliferation after influenza virus vaccination of mice; format: in vivo, mouse
# [12] = system: NF-κB; test: NF-κB reporter activity assay in 3T3-L1 cells
# [13] = system: LPS-induced splenic gene expression; test: LPS challenge in mice, spleen microarray and network analysis
# Source text: Microarray data analysis—After homogenization of spleens, total RNA was extracted and purified using the RNAeasy system according to manufacturer's instructions (Qiagen Valencia, Calif.). The QIAGEN RNase-free DNase supplement kit was used to ensure that the RNA was free from DNA contamination. RNA was then processed and labeled according to the standard target labeling protocols and the samples were hybridized, stained, and scanned per standard Affymetrix protocols at VBI core laboratory on Mouse 430 2.0 expression arrays (Affymetrix Inc., Santa Clara, Calif.). All statistical analysis of the data was performed within the R statistical environment—Version 2.9.0 (24) using Bioconductor packages (25)]. Raw microarray data from CEL files were read with ‘affy’ package (26) and pre-processed by gcRMA algorithm (GC Robust Multiarray Average) that performs the three steps: (i) adjustment of the gene expression signal against the background caused by optical noise and non-specific binding, (ii) robust multi-array normalization (27), and (iii) summarization of the probes belonging to each probe set. Empirical Bayes adjustment was applied and p-values were corrected for multiple testing. […] The selected list of genes was analysed with hypergeometric testing that applies Fisher's exact test to find association between interesting genes and membership within the KEGG pathway(s).
# The experiment followed a 2×2 factorial design with 2 factors: LPS and ABA, each with 2 levels: absence and presence. Thus there were four groups of mice: LPS & ABA, LPS & control, no LPS & control, no LPS & ABA. The design matrix, constructed in the package ‘limma’, defined coefficients for LPS main effect, ABA main effect and the interaction effect. […] These 43 probe sets were uploaded to IPA8.0 for Ingenuity Pathway Analysis (Ingenuity Systems, Redwood City, Calif.).
# [14] = network analysis, LPS challenged mice
smiles,measurement,setting,value
"CC1=CC(=O)CC(C)(C)C1(O)/C=C/C(C)=C\C(=O)O (racemic) [ABA, abscisic acid]",ability to compete with the tracer for binding to the PPAR γ LBD,[1],not a PPAR γ ligand
same,PPAR γ reporter activity,"[2]; normal LANCL2, ABA 1.25-10 μM, Ros 1 or 10 μM, vs untreated cells",significantly elevated PPAR γ
same,PPAR γ reporter activity,[2]; with LANCL2 siRNA,neither ABA nor Ros significantly affected PPAR γ activity
same,concentration at cAMP peak,[3],2.5 µM
same,cAMP peak over control,[3]; 2.5 μM,10%
same,PGE2 secretion,[4]; EIA,significantly suppressed
same,MCP-1 secretion,[4]; ELISA,significantly suppressed
same,LPS-mediated activation of NFATc1,[5],significantly decreased
same,RXR reporter activity,[6],does not increase
same,RAR reporter activity,[7],does not increase
same,IL-2 production,[8],increases
same,lymphocyte proliferation,[8],increases
same,survival,[9]; WT mice,100%
same,maximum loss of original body weight,"[9]; WT mice, ABA diet 100 mg/kg of diet",5%
same,lung MCP-1 mRNA expression,"[9]; WT mice, vs control diet",consistently lower levels of MCP-1 mRNA expression
same,extent of vascular infiltrates,"[9]; WT, vs control diet",diminished
same,infiltration of respiratory airways,"[9]; WT, vs control diet",diminished
same,lung MCP-1 mRNA expression,[9]; cKO mice,failed to down-regulate MCP-1 expression
same,beneficial effect on lung inflammatory cell infiltration,[9]; cKO mice fed ABA,abrogated
same,survival,[9]; cKO mice,71.2%
same,viral loads in the lungs,[9]; day 4 post-infection,no significant differences
same,expression of PPAR γ in BAL-derived cells,"[9]; healthy non-infected WT mice, 36 days",significantly increased
same,epithelial recovery,[9]; lung histopathology,neither did it have any effect
same,extent of epithelial necrosis,"[9]; lung histopathology, days 2, 4, 7",did not affect
same,weight loss,[9]; mice with defective PPAR γ expression in immune and epithelial cells (cKO),behaved similar to WT mice fed the control diet
same,weight loss and recovery,"[10]; 100 mg/kg oral gavage once daily 10 days, from 4 hours post-infection",suppressed weight loss for both strains and accelerated recovery
same,glucose tolerance,[10]; lean and obese mice infected with H1N1,ameliorated glucose tolerance
same,glucose tolerance,[10]; uninfected control mice,ameliorated glucose tolerance
same,MCP-1 expression in white adipose tissue,[10]; uninfected mice,down-regulated MCP-1 expression
same,antigen-specific lymphoproliferative recall responses,"[11]; ABA diet 100 mg/kg, days 14 and 21 post-vaccination",increased
same,immunostimulatory effect on responses to influenza vaccination,[11]; mice lacking PPAR γ in immune cells,attenuated
same,NF-κB reporter activity,[12],significantly suppressed
same,magnitude of LPS-modulated gene expression (fold-change),"[13]; 64 genes, spleen",attenuated
same,ABA effect on LPS-induced gene expression,[13]; absence of functional immune cell PPAR γ,impaired (or abrogated)
same,"nuclear receptors (PPAR γ, PPAR α, RXRα, RXRβ)",[13]; [14],up-regulation
same,"pro-inflammatory genes (IL-6, IL-1β, MIF and IFN-γ)",[13]; [14],down-regulation
same,"expression of IL-6, IFN-γ, TNF-α induced protein 2 and chemokine ligand 11","[13]; spleen, 6 hours post LPS",down-regulated
